Test results as given in PubChem BioAssay (NCI).
“And” between values parts separate entries of the source, which are not always exact repeats. Equal values may be shown once.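 How tested: cells in 96-well plates exposed to compound for 48 hours at five concentrations. GI50 marks 50% less growth. The concentration for full growth arrest is given as TGI.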

Assays:
Test in all cases: inhibition of tumour cell growth, NCI panel, 48 h
[1] = test system: M14 melanoma
[2] = test system: SW-620 colon
[3] = test system: MDA-MB-435
[4] = test system: SK-MEL-28 melanoma
[5] = test system: EKVX NSCLC
[6] = test system: UACC-257 melanoma
[7] = test system: CAKI-1 renal
[8] = test system: SF-539 CNS
[9] = test system: K-562 leukemia
[10] = test system: U251 CNS

Structure (SMILES) | TGI [1] [µM] | TGI [2] [µM] | TGI [3] | TGI [4] [µM] | TGI [5] [µM] | TGI [6] | TGI [7] | TGI [8] [µM] | TGI [9] | TGI [10] | GI50 [2] | GI50 [9] | GI50 [10]
COc1ccc(C[C@H]2COC(=O)[C@@H]2Cc2cc(OC)c(OC)c(OC)c2)cc1OC | > 100 | > 100 | > 100 µM | > 100 | > 100 | > 100 µM | > 100 µM | > 100 | > 100 µM | > 100 µM |  |  | 
C=CCN1C(=O)/C(=C/c2ccc(Cl)cc2)N=C1SC1OC(COC(C)=O)C(OC(C)=O)C(OC(C)=O)C1OC(C)=O (stereo not drawn) | > 100 | > 100 | > 66.3 µM and 64.8 µM | > 100 | > 100 | 45.2 µM and 74.4 µM | 28.3 µM and > 100 µM | > 100 | > 100 µM and 76.3 µM | 19.7 µM and > 100 µM | > 59.6 µM and 11.1 µM | > 61.7 µM and 13.1 µM | 5.23 µM and 30.1 µM
C[C@@H](C[C@@H](O)[C@H](O)C(C)(C)O)[C@H]1CC=C2[C@]3(C)[C@H](O)C[C@H]4C(C)(C)[C@H](O)CC[C@]4(C)[C@H]3CC[C@@]21C | 28.6 | 32.3 | 31.4 µM | 28.5 | 26.1 | 32 µM | 30 µM | 35.7 | 41.7 µM | 32.1 µM |  |  | 
COC1=CC2(C=CC1=O)CCN=c1c(O)c3c(c(O)c12)=NC=N3 (stereo not drawn) | > 100 | > 100 | > 100 µM | > 100 | > 100 | > 100 µM | > 100 µM | > 100 | > 100 µM | > 100 µM |  |  | 
CN(C)CCNC(=O)c1cccc2c(NC(CS)C(=O)O)c3ccccc3nc12 (stereo not drawn) | 19.5 | > 100 | 21 µM | 35.7 | 39.3 | > 100 µM | 57.1 µM | 18.1 | > 100 µM | > 100 µM |  |  | 
BrCC[P+](c1ccccc1)(c1ccccc1)c1ccccc1 | 18 | 34.4 | 10.8 µM | 19.5 | 12.8 | 16.5 µM | 25.2 µM | 35.3 | 30.9 µM | 13.2 µM |  |  | 
